Data published in US20220281835A1, “PHENOL DERIVATIVES FOR USE AS ANTIMICROBIAL, ANTIBACTERIAL, BACTERICIDE” (SPECIAL PRODUCT'S LINE S.P.A., priority 2019, published 2022).
≈ marks a conversion by molar mass, not a printed value.

Key:
Test in all cases: MIC/MBC broth-dilution (micromethod), CLSI
Assay type in all cases: cell-based
[1] = tested on: S. Aureus strain 1 (collection) mec a+; conditions: Staphylococcus aureus; for MIC: marked *: MIC value read at 48 hours; for MBC: kills 99,9% of initial population
Text: (§1) Determination of Minimal Inhibitory Concentration (MIC), Minimal Bactericidal Concentration (MBC), bactericidal curves and killing rate on Gram positive and Gram negative bacteria strains, for the evaluation of the bactericidal activity of compounds of example 1 (n. 1 to 14).
(§2) In details, phenotypic methods based on in vitro MIC and MBC determination have been performed on previously isolated bacterial strains, identified and characterized at the level of their antibiotic susceptibility profile. According to MIC and MBC data, the Killing Rate was calculated as the ratio between MBC and MIC on which basis it is possible to define the compounds tested as bactericides (killing rate=1-4), or bacteriostatic (killing rate >4).
(§3) Preparation of the solution containing molecules: for each molecule to be tested, solutions were made as DMSO Stock, with a concentration of 2.560 mg/ml, used to test 12 dilutions with the following scalar drug concentrations: 512-256-128-64-32-16-8-4-2-1-0.5-0.25 μg/ml. The scalar dilutions were prepared directly on plates by using Mueller Hinton Broth (MHB) as a solvent.
Bacterial suspension preparation: cryostrains preserved at −80° C. were recovered by incubation in growth medium (Brain Heart Infusion Broth, BHI) for 24-48 hours at 37° C. followed by passages in agar growth medium (Columbia Blood Agar). Colonies with less than 30 hours are suspended in MHB with the purpose to prepare a bacterial suspension with a turbidity of 0.5 MF, containing approximately 1.5×10^8 cfu/ml. This injection is additionally diluted in MHB until reaching a final concentration of 5×10^5 cfu/ml (range 3-7×10^5 cfu/ml). Identical volumes of this bacterial suspension are added on a plate, for each well containing drug scalar dilutions, to obtain a final concentration between 512 a 0.25 μg/ml. The set up of bacterial suspensions as well as the passage on slate has always been performed within 30 minutes, in order not to alter the concentration of the bacterial suspension. Simultaneously, check in broth-microdilution only with solvent (in order to exclude that the effect of growth inhibition might be due to the drug solution solvent), positive growth control in absence of DMSO and drug, and negative purity control only with injection broth are performed. As a consequence the slate is incubated at 37° C. for 24 and 48 hours in aerobes. […] The same observations are valid to evaluate 48 hours MIC. After the incubation, an equal volume of bacterial suspension from each well is plated on agar growth medium and incubated for 24-48 hours at a temperature of 37° C. in aerobes, in order to define the MBC after the incubation.
Bacterial strains: the bactericidal and/or bacteriostatic power of the synthesized compounds can be determined by using standard reference strains such as: • 1. S. Aureus ATCC 25923 res kan, tob, res streptogramine (sga-sgb, efflux), res mupirocina (at low level), res trimetoprim; • 2. S. Aureus strain 1 (collection) mec a+, res kan tob gen, res quinolones, lincosamides, res streptogramine (sga-sgb), mlsb+sa constituent, mlsb constituent, res mupirocine (low level), res trimetoprim; • 3. S. Aureus strain 2 (collection) acquired penicillinase, res kan tob, res streptogramine (sga-sgb, efflux), res mupirocine (low level), res trimetoprim; • 4. Enterococcus faecalis ATCC 51299 (str+gen res at high level, mlsb res, simil van b res); • 5. Enterococcus faecalis strain 1 (collection) (str+kan res at high level str res at high level tetracycline res); • 6. Enterococcus faecalis strain 2 (collection) (kan res at high level); • 7. E. coli of Collection: RESISTANT to ampicilline, amox+ac clav, ampicillinr+sulbactam, cefalexine, cefuroxime, cefuroxime axetil, cefixime, cefpodoxime, cefotaxime, ceftazidime, ceftriaxone, netilmicine, tobramicine, ciprofloxcine, trim/sulfametox, esbl pos, SENSITIVE to meropenem and gentamicine, INTERMEDIATE to amikacine; • 8. 8.

[2] = tested on: Enterococcus faecalis strain 2 (collection); conditions: for MBC: E. FAECALIS strain 2, kills 99,9% of initial population
Text: as §1
as §2, with “Sensitivity tests have been performed in broth-dilution (micromethod) with the purpose to test the possible bacteriostatic and/or bactericidal power in different compounds, in accordance with CLSI guidelines (Clinical and Laboratory Standards Institute). In” for “In”
as §3
(§4) Bacterial suspension preparation: cryostrains preserved at −80° C. were recovered by incubation in growth medium (Brain Heart Infusion Broth, BHI) for 24-48 hours at 37° C. followed by passages in agar growth medium (Columbia Blood Agar). Colonies with less than 30 hours are suspended in MHB with the purpose to prepare a bacterial suspension with a turbidity of 0.5 MF, containing approximately 1.5×10^8 cfu/ml. This injection is additionally diluted in MHB until reaching a final concentration of 5×10^5 cfu/ml (range 3-7×10^5 cfu/ml). Identical volumes of this bacterial suspension are added on a plate, for each well containing drug scalar dilutions, to obtain a final concentration between 512 a 0.25 μg/ml. The set up of bacterial suspensions as well as the passage on slate has always been performed within 30 minutes, in order not to alter the concentration of the bacterial suspension. Simultaneously, check in broth-microdilution only with solvent (in order to exclude that the effect of growth inhibition might be due to the drug solution solvent), positive growth control in absence of DMSO and drug, and negative purity control only with injection broth are performed. As a consequence the slate is incubated at 37° C. for 24 and 48 hours in aerobes. The 24 hours MIC is considered as the minimum drug concentration able to inhibit bacterial growth, which makes it possible to observe the absence of bacterial growth and the absence of turbidity. The same observations are valid to evaluate 48 hours MIC. After the incubation, an equal volume of bacterial suspension from each well is plated on agar growth medium and incubated for 24-48 hours at a temperature of 37° C. in aerobes, in order to define the MBC after the incubation. The MBC is evaluated as the minimum concentration of drug able to kill the 99,9% of the initial bacterial population.
(§5) Bacterial strains: the bactericidal and/or bacteriostatic power of the synthesized compounds can be determined by using standard reference strains such as: • 1. S. Aureus ATCC 25923 res kan, tob, res streptogramine (sga-sgb, efflux), res mupirocina (at low level), res trimetoprim; • 2. S. Aureus strain 1 (collection) mec a+, res kan tob gen, res quinolones, lincosamides, res streptogramine (sga-sgb), mlsb+sa constituent, mlsb constituent, res mupirocine (low level), res trimetoprim; • 3. S. Aureus strain 2 (collection) acquired penicillinase, res kan tob, res streptogramine (sga-sgb, efflux), res mupirocine (low level), res trimetoprim; • 4. Enterococcus faecalis ATCC 51299 (str+gen res at high level, mlsb res, simil van b res); • 5. […]

[3] = tested on: S. Aureus strain 2 (collection); conditions: Staphylococcus aureus, marked *: MIC value read at 48 hours
Text: as §1
as §2, with “Sensitivity tests have been performed in broth-dilution (micromethod) with the purpose to test the possible bacteriostatic and/or bactericidal power in different compounds, in accordance with CLSI guidelines (Clinical and Laboratory Standards Institute). In” for “In”
as §3, §4, §5

[4] = tested on: Enterococcus faecalis strain 1 (collection); conditions: E. FAECALIS strain 1, values without asterisk
Text: as §1
as §2, with “Sensitivity tests have been performed in broth-dilution (micromethod) with the purpose to test the possible bacteriostatic and/or bactericidal power in different compounds, in accordance with CLSI guidelines (Clinical and Laboratory Standards Institute). In” for “In”
as §3, §4, §5

[5] = tested on: S. Aureus ATCC 25923; conditions: Staphylococcus aureus, ATCC25923, marked *: MIC value read at 48 hours
Text: as §1
as §2, with “Sensitivity tests have been performed in broth-dilution (micromethod) with the purpose to test the possible bacteriostatic and/or bactericidal power in different compounds, in accordance with CLSI guidelines (Clinical and Laboratory Standards Institute). In” for “In”
as §3, §4, §5

[6] = tested on: Enterococcus faecalis ATCC 51299; conditions: ATCC51299, E. FAECALIS ATCC 51299, values without asterisk
Text: as §1
as §2, with “Sensitivity tests have been performed in broth-dilution (micromethod) with the purpose to test the possible bacteriostatic and/or bactericidal power in different compounds, in accordance with CLSI guidelines (Clinical and Laboratory Standards Institute). In” for “In”
as §3, §4, §5

[7] = tested on: P. Aeruginosa of collection; conditions: Pseudomonas aeruginosa
Text: as §1
as §2, with “Sensitivity tests have been performed in broth-dilution (micromethod) with the purpose to test the possible bacteriostatic and/or bactericidal power in different compounds, in accordance with CLSI guidelines (Clinical and Laboratory Standards Institute). In” for “In”
as §3, §4, §5

[8] = E. FAECALIS strain 2, values without asterisk
[9] = E. FAECALIS strain 2, marked *: MIC value read at 48 hours

SMILES | MIC [1] [µg/mL] | MIC [2, 9] [µg/mL] | MBC [1] [µg/mL] | MBC [2] [µg/mL] | further results
O=C(O)C=Cc1ccc(-c2ccc(OCCCCO)c(C34CC5CC(CC(C5)C3)C4)c2)cc1 [Compound 11, 3-[3′-Adamantan-1-yl-4′-(hydroxy-butoxy)-biphenyl-4-yl]-acrylic acid] | 64 to 256 (≈ 143 to 573 µM) | – | – | – | MIC [2, 8]: 128 µg/mL (≈ 287 µM); MIC [3]: 128 to 256 µg/mL (≈ 287 to 573 µM); MIC [4]: 128 µg/mL (≈ 287 µM); MIC [5]: 128 to 256 µg/mL (≈ 287 to 573 µM); MIC [6]: 64 µg/mL (≈ 143 µM)
O=C(O)C=Cc1ccc(-c2ccc(O)c(C34CC5CC(CC(C5)C3)C4)c2)c(C=NOCC(=O)O)c1 [Compound 14, 3-[3′-Adamant-1-yl-4′-hydroxy-2-carboxymethoxyiminomethyl-biphenyl-4-yl]-acrylic acid] | 64 to 128 (≈ 135 to 269 µM) | 64 to 128 (≈ 135 to 269 µM) | – | – | –
N=C(N)NCc1cc(C=CC(=O)O)ccc1-c1ccc(O)c(C23CC4CC(CC(C4)C2)C3)c1.O=C(O)C(F)(F)F [Compound 15, 3-(3′-Adamantan-1-yl-2-guanidinomethyl-4′-hydroxy-biphenyl-4-yl)-acrylic acid trifluoroacetate] | 16 to 32 | 16 to 32 | 32 to 64 | 32 to 64 | –
O=C(O)C=Cc1ccc(-c2cc3c(c(C45CC6CC(CC(C6)C4)C5)c2)OCCO3)cc1 [Compound 16, 3-{4-[8-(Adamantan-1-yl)-2,3-dihydro-benzo[1,4]-dioxin-6-yl]-phenyl}-acrylic acid] | 2 to 4 (≈ 4.8 to 9.6 µM) | 1 to 2 (≈ 2.4 to 4.8 µM) | – | – | –
CC(=O)NCc1cc(-c2ccc(/C=C/C(=O)O)cc2)cc(C23CC4CC(CC(C4)C2)C3)c1O [Compound 17, E-3-[3′-(Acetylaminomethyl)-4′-hydroxy-5′-(adamantan-1-yl)biphenyl-4-yl]-acrylic acid] | 4 to 8 (≈ 8.98 to 18 µM) | 2 to 4 (≈ 4.49 to 8.98 µM) | 16 (≈ 35.9 µM) | 16 (≈ 35.9 µM) | –
O=C(O)/C=C/c1ccc(-c2cc(CNC(=O)Nc3ccccc3)c(O)c(C34CC5CC(CC(C5)C3)C4)c2)cc1 [Compound 18] | 4 to 8 (≈ 7.65 to 15.3 µM) | 2 to 4 (≈ 3.83 to 7.65 µM) | 8 (≈ 15.3 µM) | 16 (≈ 30.6 µM) | –
O=C(O)CCc1ccc(-c2ccc(O)c(C34CC5CC(CC(C5)C3)C4)c2)cc1 [Compound 19, 3-(3′-Adamantan-1-yl-4′-hydroxybiphenyl-4-yl)propionic Acid] | 8 to 16 (≈ 21.2 to 42.5 µM) | 8 to 16 (≈ 21.2 to 42.5 µM) | 16 (≈ 42.5 µM) | 32 (≈ 85 µM) | –
CCCCC/C=C\C/C=C\CCCCCCCC(=O)Oc1ccc(-c2ccc(/C=C/C(=O)O)cc2)cc1C12CC3CC(CC(C3)C1)C2 [Compound 20, (E)-Octadeca-9,12-dienoic acid 3-adamantan-1-yl-40-(2-carboxyvinyl)-biphenyl-4-yl ester] | 8 to 32 (≈ 12.6 to 50.2 µM) | – | – | – | MIC [2, 8]: 128 µg/mL (≈ 201 µM); MIC [7]: 20 µg/mL (≈ 31.4 µM)
O=Cc1cc(-c2ccc(/C=C/C(=O)O)cc2)cc(C23CC4CC(CC(C4)C2)C3)c1O [Compound 21, E-3-[3′-Formyl-4′-hydroxy-5′-(adamantan-1-yl)-biphenyl-4-yl]-acrylic acid] | 16 to 64 (≈ 39.8 to 159 µM) | 32 to 64 (≈ 79.5 to 159 µM) | – | – | –
